{"source": "patent US12708116B2", "about": "“Herbicidal compositions comprising 2,4-D” (BASF SE, priority 2023, dated 2026)", "experiment_in_all_cases": "Post-emergence application in field trials", "key": {"[1]": {"system": "AMAPA"}, "[2]": {"system": "ECHCG", "type": "in vivo, Echinochloa crus-galli"}, "[3]": {"system": "GLXMA", "type": "in vivo, Glycine max", "details": "Example 4; 21 DAT; g ai/ha A-1 12.5, B-5 1066; growth stage 13; height 5-8 cm"}, "[4]": {"system": "SETVE", "details": "growth stage 21-23"}, "[5]": {"system": "DIGSA"}, "[6]": {"system": "HORVW", "details": "growth stage 23-29, height 20-25 cm"}, "[7]": {"system": "AMARE", "type": "in vivo, Amaranthus retroflexus", "details": "8 DAT; g ai/ha A-1 25, B-5 1066; growth stage 19; height 10-20 cm; water volume 140 l/ha"}, "[8]": {"system": "CYPES", "details": "21 DAT, water volume 140 l/ha"}, "[9]": {"system": "DATST"}, "[10]": {"system": "AMATU", "type": "in vivo, Amaranthus tuberculatos", "details": "8 DAT; g ai/ha A-1 12.5, B-5 1066; growth stage 19; height 10-20 cm; water volume 140 l/ha"}, "[11]": {"system": "ZEAMX", "details": "growth stage 15-16"}, "[12]": {"system": "PORPI", "type": "in vivo", "details": "8 DAT; g ai/ha A-1 25, B-5 1066; height 2-8 cm; water volume 140 l/ha"}, "[13]": {"system": "SETVI", "type": "in vivo, Setaria viridis", "details": "15 DAT; g ai/ha A-1 12.5, B-5 1066, C-10 840; growth stage 13-19; height 2-18 cm; water volume 140 l/ha"}}}
{"smiles": "C[N+](C)(C)CCO.O=C([O-])COc1ccc(Cl)cc1Cl", "note": "[B-5, 2,4-D choline]", "values": [{"measurement": "% Herbicidal activity", "setting": "[1]; 13 DAT, g ai/ha A-1 25, B-5 1066, growth stage 16, height 15-25 cm, water volume 187 l/ha", "result": 53, "unit": "%"}, {"measurement": "% Herbicidal activity", "setting": "[1]; 14 DAT, g ai/ha A-1 12.5, B-5 1066, C-10 840, growth stage 12-24, height 5-30 cm, water volume 140 l/ha", "result": 66, "unit": "%"}, {"measurement": "% Herbicidal activity", "setting": "[1]; 14 DAT, g ai/ha A-1 25, B-5 1066, C-10 840, growth stage 12-24, height 5-30 cm, water volume 140 l/ha", "result": 66, "unit": "%"}, {"measurement": "% Herbicidal activity", "setting": "[1]; 19 DAT, g ai/ha A-1 12.5, B-5 1066, growth stage 16, height 15-25 cm, water volume 187 l/ha", "result": 55, "unit": "%"}, {"measurement": "% Herbicidal activity", "setting": "[1]; 19 DAT, g ai/ha A-1 25, B-5 1066, growth stage 16, height 15-25 cm, water volume 187 l/ha", "result": 55, "unit": "%"}, {"measurement": "% Herbicidal activity", "setting": "[1]; 19 DAT, g ai/ha A-1 50, B-5 1066, growth stage 16, height 15-25 cm, water volume 187 l/ha", "result": 55, "unit": "%"}, {"measurement": "% Herbicidal activity", "setting": "[1]; 21 DAT, g ai/ha A-1 12.5, B-5 1066, growth stage 12-28, height 7-20 cm, water volume 140 l/ha", "result": 63, "unit": "%"}, {"measurement": "% Herbicidal activity", "setting": "[1]; 21 DAT, g ai/ha A-1 50, B-5 1066, height 5-23 cm, water volume 140 l/ha", "result": 78, "unit": "%"}, {"measurement": "% Herbicidal activity", "setting": "[2]; 13 DAT, g ai/ha A-1 12.5, B-5 1066, C-10 840, growth stage 21-26, height 15-30 cm, water volume 187 l/ha", "result": 0, "unit": "%"}, {"measurement": "% Herbicidal activity", "setting": "[2]; 13 DAT, g ai/ha A-1 25, B-5 1066, C-10 840, growth stage 21-26, height 15-30 cm, water volume 187 l/ha", "result": 0, "unit": "%"}, {"measurement": "% Herbicidal activity", "setting": "[2]; 13 DAT, g ai/ha A-1 50, B-5 1066, C-10 840, growth stage 21-26, height 15-30 cm, water volume 187 l/ha", "result": 0, "unit": "%"}, {"measurement": "% Herbicidal activity", "setting": "[2]; Example 4, 21 DAT, g ai/ha A-1 12.5, B-5 1066, growth stage 23-30, height 15-20 cm", "result": 0, "unit": "%"}, {"measurement": "% Herbicidal activity", "setting": "[2]; Example 6, 7 DAT, g ai/ha A-1 12.5, B-5 1066, C-11 400, growth stage 23-30, height 15-20 cm", "result": 0, "unit": "%"}, {"measurement": "% Herbicidal activity", "setting": "[2]; Example 6, 28 DAT, g ai/ha A-1 12.5, B-5 1066, C-11 400, growth stage 23-30, height 15-20 cm", "result": 0, "unit": "%"}, {"measurement": "% Herbicidal activity", "setting": "[2]; Example 8, 7 DAT, g ai/ha A-1 12.5, B-5 1066, C-12 252, growth stage 23-30, height 15-20 cm", "result": 0, "unit": "%"}, {"measurement": "% Herbicidal activity", "setting": "[2]; Example 8, 21 DAT, g ai/ha A-1 12.5, B-5 1066, C-12 252, growth stage 23-30, height 15-20 cm", "result": 0, "unit": "%"}, {"measurement": "% Herbicidal activity", "setting": "[2]; Example 8, 28 DAT, g ai/ha A-1 12.5, B-5 1066, C-12 252, growth stage 23-30, height 15-20 cm", "result": 0, "unit": "%"}, {"measurement": "% Herbicidal activity", "setting": "[2]; Example 10, 21 DAT, g ai/ha A-1 12.5, B-5 1066, C-4 12.5, growth stage 23-30, height 15-20 cm", "result": 0, "unit": "%"}, {"measurement": "% Herbicidal activity", "setting": "[3]", "result": 55, "unit": "%"}, {"measurement": "% Herbicidal activity", "setting": "[4]; Example 4, 21 DAT, g ai/ha A-1 12.5, B-5 1066, height 8-16 cm", "result": 25, "unit": "%"}, {"measurement": "% Herbicidal activity", "setting": "[4]; Example 6, 7 DAT, g ai/ha A-1 12.5, B-5 1066, C-11 400, height 10-15 cm", "result": 15, "unit": "%"}, {"measurement": "% Herbicidal activity", "setting": "[4]; Example 6, 21 DAT, g ai/ha A-1 12.5, B-5 1066, C-11 400, height 10-15 cm", "result": 0, "unit": "%"}, {"measurement": "% Herbicidal activity", "setting": "[5]; 14 DAT, g ai/ha A-1 12.5, B-5 1066, height 2-8 cm, water volume 140 l/ha", "result": 0, "unit": "%"}, {"measurement": "% Herbicidal activity", "setting": "[5]; 14 DAT, g ai/ha A-1 25, B-5 1066, height 2-8 cm, water volume 140 l/ha", "result": 0, "unit": "%"}, {"measurement": "% Herbicidal activity", "setting": "[5]; 14 DAT, g ai/ha A-1 50, B-5 1066, height 2-8 cm, water volume 140 l/ha", "result": 0, "unit": "%"}, {"measurement": "% Herbicidal activity", "setting": "[5]; 15 DAT, g ai/ha A-1 12.5, B-5 1066, C-10 840, growth stage 13-19, height 2-13 cm, water volume 140 l/ha", "result": 27, "unit": "%"}, {"measurement": "% Herbicidal activity", "setting": "[5]; 21 DAT, g ai/ha A-1 12.5, B-5 1066, C-11 655, height 2-8 cm, water volume 140 l/ha", "result": 0, "unit": "%"}, {"measurement": "% Herbicidal activity", "setting": "[5]; 21 DAT, g ai/ha A-1 12.5, B-5 1066, height 2-8 cm, water volume 140 l/ha", "result": 0, "unit": "%"}, {"measurement": "% Herbicidal activity", "setting": "[5]; 21 DAT, g ai/ha A-1 25, B-5 1066, C-11 655, height 2-8 cm, water volume 140 l/ha", "result": 0, "unit": "%"}, {"measurement": "% Herbicidal activity", "setting": "[5]; 21 DAT, g ai/ha A-1 25, B-5 1066, height 2-8 cm, water volume 140 l/ha", "result": 0, "unit": "%"}, {"measurement": "% Herbicidal activity", "setting": "[5]; 21 DAT, g ai/ha A-1 50, B-5 1066, C-11 655, height 2-8 cm, water volume 140 l/ha", "result": 0, "unit": "%"}, {"measurement": "% Herbicidal activity", "setting": "[5]; 21 DAT, g ai/ha A-1 50, B-5 1066, height 2-8 cm, water volume 140 l/ha", "result": 0, "unit": "%"}, {"measurement": "% Herbicidal activity", "setting": "[5]; Example 6, 7 DAT, g ai/ha A-1 12.5, B-5 1066, C-11 400, growth stage 21-22, height 15-20 cm", "result": 20, "unit": "%"}, {"measurement": "% Herbicidal activity", "setting": "[5]; Example 6, 21 DAT, g ai/ha A-1 12.5, B-5 1066, C-11 400, growth stage 21-22, height 15-20 cm", "result": 20, "unit": "%"}, {"measurement": "% Herbicidal activity", "setting": "[6]; Example 4, 21 DAT, g ai/ha A-1 12.5, B-5 1066", "result": 0, "unit": "%"}, {"measurement": "% Herbicidal activity", "setting": "[6]; Example 6, 28 DAT, g ai/ha A-1 12.5, B-5 1066, C-11 400", "result": 0, "unit": "%"}, {"measurement": "% Herbicidal activity", "setting": "[6]; Example 8, 21 DAT, g ai/ha A-1 12.5, B-5 1066, C-12 252", "result": 0, "unit": "%"}, {"measurement": "% Herbicidal activity", "setting": "[6]; Example 10, 21 DAT, g ai/ha A-1 12.5, B-5 1066, C-4 12.5", "result": 0, "unit": "%"}, {"measurement": "% Herbicidal activity", "setting": "[7]", "result": 83, "unit": "%"}, {"measurement": "% Herbicidal activity", "setting": "[8]; g ai/ha A-1 12.5, B-5 1066, C-11 655", "result": 0, "unit": "%"}, {"measurement": "% Herbicidal activity", "setting": "[8]; g ai/ha A-1 50, B-5 1066, C-11 655", "result": 0, "unit": "%"}, {"measurement": "% Herbicidal activity", "setting": "[8]; g ai/ha A-1 50, B-5 1066", "result": 0, "unit": "%"}, {"measurement": "% Herbicidal activity", "setting": "[9]; Example 4, 7 DAT, g ai/ha A-1 12.5, B-5 1066", "result": 35, "unit": "%"}, {"measurement": "% Herbicidal activity", "setting": "[9]; Example 6, 21 DAT, g ai/ha A-1 12.5, B-5 1066, C-11 400", "result": 40, "unit": "%"}, {"measurement": "% Herbicidal activity", "setting": "[10]", "result": 83, "unit": "%"}, {"measurement": "% Herbicidal activity", "setting": "[11]; Example 4, 7 DAT, g ai/ha A-1 18, B-5 1066, height 50-60 cm", "result": 7, "unit": "%"}, {"measurement": "% Herbicidal activity", "setting": "[11]; Example 4, 21 DAT, g ai/ha A-1 12.5, B-5 1066, height 50-60 cm", "result": 10, "unit": "%"}, {"measurement": "% Herbicidal activity", "setting": "[11]; Example 6, 7 DAT, g ai/ha A-1 12.5, B-5 1066, C-11 400, height 25-30 cm", "result": 0, "unit": "%"}, {"measurement": "% Herbicidal activity", "setting": "[11]; Example 6, 28 DAT, g ai/ha A-1 12.5, B-5 1066, C-11 400, height 50-60 cm", "result": 0, "unit": "%"}, {"measurement": "% Herbicidal activity", "setting": "[11]; Example 8, 28 DAT, g ai/ha A-1 12.5, B-5 1066, C-12 252, height 50-60 cm", "result": 0, "unit": "%"}, {"measurement": "% Herbicidal activity", "setting": "[12]", "result": 50, "unit": "%"}, {"measurement": "% Herbicidal activity", "setting": "[13]", "result": 27, "unit": "%"}]}
